Measured values from US11111247B2, “Pyrazolopyrimidine compounds and uses thereof” (Incyte Corporation, priority 2018, dated 2021).
Where two headings read alike, the source gives them in different places.

Key:
FGFR1 (UP) = FGFR1 (UP) (Homo sapiens (Human), UniProt P11362); test: FGFR Enzymatic Assay, FGFR1 un-phosphorylated
Protocol: (§1) The inhibitor potency of the exemplified compounds was determined in an enzyme discontinuous assay that measures peptide phosphorylation using FRET measurements to detect product formation. Inhibitors were serially diluted in DMSO and a volume of 0.2 μL was transferred to the wells of a 384-well plate. For the isoforms of FGFR (−1, −2, −3 wild-type and mutant isoforms, −4) including phosphorylated (P) and un-phosphorylated (UP) proteins, a 5 μL/well volume of enzyme diluted in assay buffer (50 mM HEPES, 10 mM MgCl2, 1 mM EGTA, 0.01% Tween-20, 5 mM DTT, pH 7.5) was added to the plate and pre-incubated with inhibitor for 5 to 15 minutes at ambient temperature. Appropriate controls (enzyme blank and enzyme with no inhibitor) were included on the plate. The reaction was initiated by the addition of a 5 μL/well volume containing both biotinylated [sequence] […] The plate was allowed to equilibrate for −10 minutes at ambient temperature before scanning on a PheraStar plate reader (BMG Labtech) instrument.
(§2) Either GraphPad prism or XLfit was used to analyze the data. The IC50 values were derived by fitting the data to a four parameter logistic equation producing a sigmoidal dose-response curve with a variable Hill coefficient. Prism equation: Y=Bottom+(Top−Bottom)/(1+10^((LogIC50−X)*Hill slope)); XLfit equation: Y=(A+((B−A)/(1+((X/C)^D)))) where X is the logarithm of inhibitor concentration and Y is the response.

FGFR3 (UP) = FGFR3 (UP) (Homo sapiens (Human), UniProt P22607); test: FGFR Enzymatic Assay, FGFR3 un-phosphorylated
Protocol: as §1, §2

RT112 cells = test: Luminescent Viability Assay (LVA, FGFR3); assay type: cell-based; conditions: Homo sapiens, RT-112, 72 h, 3 days, CellTiter-Glo
Method in brief: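 RT112 bladder cells grown in RPMI with 10% FBS were exposed to a compound concentration range for 3 days. Viability read by CellTiter-Glo luminescence; IC50 fitted from percent inhibition versus log concentration.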

FGFR3 = FGFR3 (Homo sapiens, UniProt P22607); test: pFGFR3 Functional Cell HTRF Assay (BAF3-TEL-FGFR3 cells); assay type: cell-based; conditions: 2 hours
FGFR3, sequence (P22607 23-806 limits assumed): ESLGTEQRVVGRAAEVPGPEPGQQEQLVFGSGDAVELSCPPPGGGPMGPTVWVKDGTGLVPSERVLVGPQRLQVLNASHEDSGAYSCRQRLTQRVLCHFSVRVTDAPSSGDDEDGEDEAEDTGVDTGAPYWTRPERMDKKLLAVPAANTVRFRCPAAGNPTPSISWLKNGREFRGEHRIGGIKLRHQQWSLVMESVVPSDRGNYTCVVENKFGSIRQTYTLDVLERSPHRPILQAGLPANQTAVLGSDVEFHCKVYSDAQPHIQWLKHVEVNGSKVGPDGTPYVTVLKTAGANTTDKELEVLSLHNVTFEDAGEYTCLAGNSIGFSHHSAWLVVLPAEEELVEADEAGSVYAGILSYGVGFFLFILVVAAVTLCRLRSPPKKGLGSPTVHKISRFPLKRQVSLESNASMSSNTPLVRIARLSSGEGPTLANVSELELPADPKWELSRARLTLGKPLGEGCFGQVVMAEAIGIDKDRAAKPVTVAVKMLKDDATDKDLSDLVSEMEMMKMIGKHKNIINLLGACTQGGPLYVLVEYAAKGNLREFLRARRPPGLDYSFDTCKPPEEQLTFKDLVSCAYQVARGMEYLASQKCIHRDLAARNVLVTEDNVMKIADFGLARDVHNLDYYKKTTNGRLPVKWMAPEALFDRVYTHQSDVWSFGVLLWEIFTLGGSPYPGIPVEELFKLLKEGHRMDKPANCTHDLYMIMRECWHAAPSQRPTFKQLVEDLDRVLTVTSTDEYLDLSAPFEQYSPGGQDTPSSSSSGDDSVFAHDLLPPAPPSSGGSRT
Protocol: To measure phosphorylated Fibroblast Growth Factor Receptor 1 and 3 (FGF1 and FGFR3), in house stable cell lines BAF3-TEL-FGFR1 or BAF3-TEL-FGFR3 were maintained in RPMI with 10% FBS and 1 μg/ml puromycin (Gibco/Life Technologies). […] The plates were gently shaken (100 rpm) for 2 minutes at room temperature to mix well and incubated for 2 hours in a single layer at 37° C., 5% CO2. 4 μl/well of 1/25 dilution of lysis buffer #3 (Cis Bio) was added with standard Protease inhibitors and shaken at 200 rpm at room temperature for 20 minutes. 4 μl total of the Cis Bio Tb-pFGFR Ab (10 ng) and d2-FGFR3 (1 ng) together were added to the lysate and mixed well. Plates were sealed and incubated at room temperature overnight in the dark. […] IC50 determination was performed by fitting the curve of inhibitor percent inhibition versus the log of the inhibitor concentration using the GraphPad Prism 5.0 software.

FGFR2 (P) = FGFR2 (P) (Homo sapiens (Human), UniProt P21802); test: FGFR Enzymatic Assay, FGFR2 phosphorylated; conditions: phosphorylated enzyme, ATP near or below Km
FGFR2 (P), sequence (P21802 22-821): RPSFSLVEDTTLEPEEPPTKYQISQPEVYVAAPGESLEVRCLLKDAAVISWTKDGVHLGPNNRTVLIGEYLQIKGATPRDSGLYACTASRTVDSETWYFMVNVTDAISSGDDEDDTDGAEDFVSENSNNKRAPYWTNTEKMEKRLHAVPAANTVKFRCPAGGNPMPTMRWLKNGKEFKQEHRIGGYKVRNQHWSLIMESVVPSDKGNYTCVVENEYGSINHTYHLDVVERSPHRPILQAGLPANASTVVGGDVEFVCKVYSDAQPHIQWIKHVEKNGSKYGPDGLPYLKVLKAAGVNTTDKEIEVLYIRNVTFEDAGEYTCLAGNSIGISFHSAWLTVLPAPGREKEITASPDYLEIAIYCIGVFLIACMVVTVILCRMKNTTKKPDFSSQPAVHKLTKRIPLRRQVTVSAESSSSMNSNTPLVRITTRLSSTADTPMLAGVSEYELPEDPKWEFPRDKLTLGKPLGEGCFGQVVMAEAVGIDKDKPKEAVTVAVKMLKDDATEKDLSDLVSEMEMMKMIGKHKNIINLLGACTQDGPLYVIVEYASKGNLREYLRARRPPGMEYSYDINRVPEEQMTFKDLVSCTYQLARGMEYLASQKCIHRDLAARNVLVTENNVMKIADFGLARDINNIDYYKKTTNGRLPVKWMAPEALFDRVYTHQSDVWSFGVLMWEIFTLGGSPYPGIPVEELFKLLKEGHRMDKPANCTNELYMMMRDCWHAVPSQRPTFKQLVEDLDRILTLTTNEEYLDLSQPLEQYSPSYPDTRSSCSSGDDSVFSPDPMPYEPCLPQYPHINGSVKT

ALK2 (aa 147-end) = ALK2 (aa 147-end) (Homo sapiens (Human), UniProt Q04771); test: ALK2 HTRF Assay; assay type: biochemical
ALK2 (aa 147-end), sequence (Q04771 147-509): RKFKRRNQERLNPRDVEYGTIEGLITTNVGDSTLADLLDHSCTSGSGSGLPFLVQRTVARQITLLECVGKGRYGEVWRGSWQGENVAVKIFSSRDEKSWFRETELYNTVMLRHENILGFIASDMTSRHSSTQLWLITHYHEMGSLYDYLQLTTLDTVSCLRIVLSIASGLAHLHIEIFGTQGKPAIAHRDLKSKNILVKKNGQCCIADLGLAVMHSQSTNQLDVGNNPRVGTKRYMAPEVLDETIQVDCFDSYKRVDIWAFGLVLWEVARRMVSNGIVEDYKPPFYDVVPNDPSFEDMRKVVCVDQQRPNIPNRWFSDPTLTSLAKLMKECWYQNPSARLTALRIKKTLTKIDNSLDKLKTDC

FGFR2 (UP) = FGFR2 (UP) (Homo sapiens (Human), UniProt P21802); test: FGFR Enzymatic Assay, FGFR2 un-phosphorylated
FGFR2 (UP), sequence (P21802 22-821): as the sequence (P21802 22-821) above
Protocol: as §1, §2

ALK2 = ALK2 (Homo sapiens (Human), UniProt Q04771); test: ALK2 Cellular Assay (phospho SMAD1 HTRF, BMP-7 stimulated HeLa cells); assay type: cell-based; conditions: read-out: ALK2 Cellular Assay PSMAD
ALK2, sequence (Q04771 21-509): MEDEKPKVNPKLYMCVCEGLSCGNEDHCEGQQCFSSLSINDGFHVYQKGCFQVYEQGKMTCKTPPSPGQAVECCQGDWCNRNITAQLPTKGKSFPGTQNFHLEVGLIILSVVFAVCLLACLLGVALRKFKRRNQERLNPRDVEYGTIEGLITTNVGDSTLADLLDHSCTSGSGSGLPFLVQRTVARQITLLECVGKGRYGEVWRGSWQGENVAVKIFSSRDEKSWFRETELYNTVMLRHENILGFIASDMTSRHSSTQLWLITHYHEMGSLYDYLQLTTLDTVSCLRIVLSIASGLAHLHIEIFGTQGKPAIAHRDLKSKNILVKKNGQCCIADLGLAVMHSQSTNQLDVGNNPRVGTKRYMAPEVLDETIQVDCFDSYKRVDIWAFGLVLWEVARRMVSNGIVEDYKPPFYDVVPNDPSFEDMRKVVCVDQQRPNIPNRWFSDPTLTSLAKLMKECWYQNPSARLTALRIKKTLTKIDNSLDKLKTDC
Protocol: HeLa cells were cultured in MEM media with 10% FBS. […] HeLa cells were plated in 96 well flat bottomed plate at 50,000 cells per well and incubated overnight. Next day, media was removed and 50 μL of fresh complete media was added. 5 μL compound was added to cells (3 μM final concentration at highest) and incubated for 60 min at 37° C. 200 ng/ml BMP-7 was added and incubated for 30 min at 37° C. After incubation, the media was removed, washed 2×PBS, and proceeded with HTRF kit according to Cisbio HTRF kit instructions for measuring the Phospho SMAD1 (S463/S465). Finally, both the donor and acceptor were added into 384 well plates and incubated at room temperature overnight and the HTRF signal was measured via Pherastar the next day.

[1] = read-out: FGFR3 (UP) IC50, un-phosphorylated enzyme, ATP near or below Km
[2] = read-out: ALK2 3 μM IC50, 3 uM ATP
[3] = read-out: ALK2 100 μM IC50, 100 uM ATP
[4] = read-out: FGFR1 (UP) IC50, un-phosphorylated enzyme, ATP near or below Km
[5] = read-out: FGFR2 (UP) IC50, un-phosphorylated enzyme, ATP near or below Km
[6] = HeLa cells, 200 ng/ml BMP-7, Phospho SMAD1 (S463/S465) HTRF
[7] = read-out: ALK2 1 mM IC50, 1 mM ATP

FGFR1 (UP), sequence (P11362 22-822): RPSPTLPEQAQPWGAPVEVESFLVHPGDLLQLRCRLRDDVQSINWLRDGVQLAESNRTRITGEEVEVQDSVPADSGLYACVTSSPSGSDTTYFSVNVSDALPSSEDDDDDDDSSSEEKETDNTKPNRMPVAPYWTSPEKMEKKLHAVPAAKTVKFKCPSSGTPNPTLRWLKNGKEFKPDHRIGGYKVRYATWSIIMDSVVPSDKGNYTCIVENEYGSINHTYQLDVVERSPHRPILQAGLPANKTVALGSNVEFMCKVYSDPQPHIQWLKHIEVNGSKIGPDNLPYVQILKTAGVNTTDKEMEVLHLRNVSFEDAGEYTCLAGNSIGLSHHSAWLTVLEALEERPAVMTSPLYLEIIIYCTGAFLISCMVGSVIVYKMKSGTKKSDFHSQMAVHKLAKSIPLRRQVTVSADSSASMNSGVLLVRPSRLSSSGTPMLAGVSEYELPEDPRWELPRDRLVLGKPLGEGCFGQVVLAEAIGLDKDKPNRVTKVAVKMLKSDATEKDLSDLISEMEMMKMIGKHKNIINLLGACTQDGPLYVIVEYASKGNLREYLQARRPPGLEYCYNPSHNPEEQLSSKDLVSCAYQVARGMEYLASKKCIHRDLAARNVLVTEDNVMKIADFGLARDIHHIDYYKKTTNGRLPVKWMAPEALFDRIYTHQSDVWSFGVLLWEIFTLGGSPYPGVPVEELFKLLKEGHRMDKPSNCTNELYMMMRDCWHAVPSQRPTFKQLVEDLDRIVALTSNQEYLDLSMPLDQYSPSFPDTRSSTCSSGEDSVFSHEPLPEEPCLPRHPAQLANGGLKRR
FGFR3 (UP), sequence (P22607 23-806): as the sequence (P22607 23-806 limits assumed) above

| IC50 (FGFR1 (UP)) [nM] | IC50 (ALK2 (aa 147-end); ALK2 1 mM IC50, 1 mM ATP) [nM] | IC50 (ALK2 (aa 147-end); [2]) [nM] | IC50 (ALK2 (aa 147-end); [3]) [nM] | IC50 (FGFR3 (UP)) [nM] | IC50 (FGFR2 (UP)) [nM] | IC50 (ALK2; [6]) [nM] | IC50 (ALK2 (aa 147-end); [7]) [nM] | SMILES | IC50 (FGFR3 (UP); [1]) [nM] | IC50 (RT112 cells) [nM] | IC50 (FGFR3) [nM] | IC50 (FGFR2 (P); read-out: FGFR2 (P) IC50) [nM] | IC50 (ALK2 (aa 147-end); ALK2 3 μM IC50, 3 uM ATP) [nM] | IC50 (ALK2 (aa 147-end); ALK2 100 μM IC50, 100 uM ATP) [nM] | IC50 (FGFR1 (UP); [4]) [nM] | IC50 (FGFR2 (UP); [5]) [nM] | IC50 (ALK2) [nM] | IC50 (FGFR2 (P); FGFR2 (P) IC50 (nM)) [nM] |
| --- | --- | --- | --- | --- | --- | --- | --- | --- | --- | --- | --- | --- | --- | --- | --- | --- | --- | --- |
|  |  |  |  |  |  |  |  | CNC(=O)c1ccc(-n2cc(-c3n[nH]c4cnc(N5C6CCC5C(=O)N(C)C6)nc34)cn2)cc1 (stereo not drawn) [Example 80, N-Methyl-4-(4-(5-(3-methyl-2-oxo-3,8-diazabicyclo[3.2.1]octan-8-yl)-1H-pyrazolo[4,3-d]pyrimidin-3-yl)-1H-pyrazol-1-yl)benzamide] | < 100 | 500 to 2000 |  | < 100 |  |  | < 100 | < 100 |  |  |
| 100 to 500 | 100 to 500 | < 100 |  | 100 to 500 | 100 to 500 | 500 to 2000 |  | C[C@@H]1CCC[C@H](C)N1c1ncc2[nH]nc(-c3ccc(N4CCN(C)CC4)cc3)c2n1 [Example 16, 5-((2R,6S)-2,6-Dimethylpiperidin-1-yl)-3-(4-(4-methylpiperazin-1-yl)phenyl)-1H-pyrazolo[4,3-d]pyrimidine] |  |  |  |  |  |  |  |  |  |  |
|  |  |  |  |  |  |  |  | CNC(=O)c1ccc(-n2cc(-c3n[nH]c4cnc(N5C6CCC5C(=O)N(C)C6)nc34)cn2)cn1 (stereo not drawn) [Example 82, N-Methyl-5-(4-(5-(3-methyl-2-oxo-3,8-diazabicyclo[3.2.1]octan-8-yl)-1H-pyrazolo[4,3-d]pyrimidin-3-yl)-1H-pyrazol-1-yl)picolinamide] | < 100 |  | 100 to 500 | < 100 | 500 to 2000 | 500 to 2000 | < 100 |  |  |  |
| 500 to 2000 |  | < 100 | < 100 | 500 to 2000 | 500 to 2000 | < 100 | < 100 | C[C@@H]1CN(c2ccc(-c3n[nH]c4cnc(N5[C@H](C)CN(C(=O)N6CCC(F)C6)C[C@@H]5C)nc34)cn2)CCN1 (stereo partly drawn) [Example 10, ((3R,5S)-3,5-Dimethyl-4-(3-(6-((R)-3-methylpiperazin-1-yl)pyridin-3-yl)-1H-pyrazolo[4,3-d]pyrimidin-5-yl)piperazin-1-yl)(3-fluoropyrrolidin-1-yl)methanone] |  |  |  |  |  |  |  |  |  |  |
|  |  | < 100 | < 100 | 500 to 2000 | 500 to 2000 | 100 to 500 | < 100 | COCC(=O)N1C[C@@H](C)N(c2ncc3[nH]nc(-c4ccc(N5CCN[C@H](C)C5)nc4)c3n2)[C@@H](C)C1 [Example 6, 1-((3R,5S)-3,5-Dimethyl-4-(3-(6-((R)-3-methylpiperazin-1-yl)pyridin-3-yl)-1H-pyrazolo[4,3-d]pyrimidin-5-yl)piperazin-1-yl)-2-methoxyethan-1-one] |  |  |  |  |  |  | > 2000 |  |  |  |
| 500 to 2000 |  | < 100 | < 100 | 500 to 2000 | 500 to 2000 | 100 to 500 | < 100 | CCOC(=O)N1C[C@@H](C)N(c2ncc3[nH]nc(-c4ccc(N5CCN[C@H](C)C5)nc4)c3n2)[C@@H](C)C1 [Example 11, Ethyl (3R,5S)-3,5-dimethyl-4-(3-(6-((R)-3-methylpiperazin-1-yl)pyridin-3-yl)-1H-pyrazolo[4,3-d]pyrimidin-5-yl)piperazine-1-carboxylate] |  |  |  |  |  |  |  |  |  |  |
| 100 to 500 | 100 to 500 | < 100 | < 100 | 100 to 500 | 100 to 500 | 100 to 500 |  | COC(=O)N1C[C@@H](C)N(c2ncc3[nH]nc(-c4ccc(N5CCN(C)CC5)c(F)c4)c3n2)[C@@H](C)C1 [Example 23, Methyl (3R,5S)-4-(3-(3-fluoro-4-(4-methylpiperazin-1-yl)phenyl)-1H-pyrazolo[4,3-d]pyrimidin-5-yl)-3,5-dimethylpiperazine-1-carboxylate] |  |  |  |  |  |  |  |  |  |  |
| 500 to 2000 |  | < 100 | < 100 | 100 to 500 | 100 to 500 | < 100 | < 100 | C[C@@H]1CN(c2ccc(-c3n[nH]c4cnc(N5[C@H](C)CN(C(=O)OCCF)C[C@@H]5C)nc34)cn2)CCN1 [Example 12, 2-Fluoroethyl (3R,5S)-3,5-dimethyl-4-(3-(6-((R)-3-methylpiperazin-1-yl)pyridin-3-yl)-1H-pyrazolo[4,3-d]pyrimidin-5-yl)piperazine-1-carboxylate] |  |  |  |  |  |  |  |  |  |  |
|  |  |  |  |  |  |  |  | CN(C)C(=O)c1ccc(-n2cc(-c3n[nH]c4cnc(N5C6CCC5C(=O)N(C)C6)nc34)cn2)cc1 (stereo not drawn) [Example 79, N,N-Dimethyl-4-(4-(5-(3-methyl-2-oxo-3,8-diazabicyclo[3.2.1]octan-8-yl)-1H-pyrazolo[4,3-d]pyrimidin-3-yl)-1H-pyrazol-1-yl)benzamide] | < 100 |  | < 100 | < 100 | 100 to 500 | 500 to 2000 | < 100 | < 100 |  |  |
|  | 100 to 500 | < 100 | < 100 | 100 to 500 | 500 to 2000 | 100 to 500 |  | COC(=O)N1C[C@@H](C)N(c2ncc3[nH]nc(-c4ccc(N5CCO[C@H](C)C5)nc4)c3n2)[C@@H](C)C1 [Example 32, Methyl (3R,5S)-3,5-dimethyl-4-(3-(6-((R)-2-methylmorpholino)pyridin-3-yl)-1H-pyrazolo[4,3-d]pyrimidin-5-yl)piperazine-1-carboxylate] |  |  |  |  |  |  | > 2000 |  |  |  |

| SMILES | IC50 (FGFR1 (UP)) [nM] | IC50 (ALK2 (aa 147-end); ALK2 1 mM IC50, 1 mM ATP) [nM] | IC50 (ALK2 (aa 147-end); [2]) [nM] | IC50 (ALK2 (aa 147-end); [3]) [nM] | IC50 (FGFR3 (UP)) [nM] | IC50 (FGFR2 (UP)) [nM] | IC50 (ALK2; [6]) [nM] | IC50 (ALK2 (aa 147-end); [7]) [nM] | IC50 (FGFR3 (UP); [1]) [nM] | IC50 (RT112 cells) [nM] | IC50 (FGFR3) [nM] | IC50 (FGFR2 (P); read-out: FGFR2 (P) IC50) [nM] | IC50 (ALK2 (aa 147-end); ALK2 3 μM IC50, 3 uM ATP) [nM] | IC50 (ALK2 (aa 147-end); ALK2 100 μM IC50, 100 uM ATP) [nM] | IC50 (FGFR1 (UP); [4]) [nM] | IC50 (FGFR2 (UP); [5]) [nM] | IC50 (ALK2) [nM] | IC50 (FGFR2 (P); FGFR2 (P) IC50 (nM)) [nM] |
| --- | --- | --- | --- | --- | --- | --- | --- | --- | --- | --- | --- | --- | --- | --- | --- | --- | --- | --- |
| CC(C)n1cc(-c2n[nH]c3cnc(N4C5CCC4C(=O)N(C)C5)nc23)cn1 (stereo not drawn) [Example 62, 8-(3-(1-Isopropyl-1H-pyrazol-4-yl)-1H-pyrazolo[4,3-d]pyrimidin-5-yl)-3-methyl-3,8-diazabicyclo[3.2.1]octan-2-one] | 100 to 500 |  |  |  |  |  |  |  | < 100 | 100 to 500 | 100 to 500 | < 100 |  |  |  |  |  |  |
| CCn1cc(-c2n[nH]c3cnc(N4C5CCC4C(=O)N(C)C5)nc23)cn1 (stereo not drawn) [Example 61, 8-(3-(1-Ethyl-1H-pyrazol-4-yl)-1H-pyrazolo[4,3-d]pyrimidin-5-yl)-3-methyl-3,8-diazabicyclo[3.2.1]octan-2-one] | 100 to 500 |  |  |  |  |  |  |  | < 100 | 100 to 500 | < 100 | < 100 | 500 to 2000 | 500 to 2000 |  |  |  |  |
| C[C@@H]1CN(c2ccc(-c3n[nH]c4cnc(N5[C@@H]6CC[C@H]5CN(C(=O)N5CCCC5)C6)nc34)cn2)CCN1 [Example 14, ((1R,5S)-8-(3-(6-((R)-3-Methylpiperazin-1-yl)pyridin-3-yl)-1H-pyrazolo[4,3-d]pyrimidin-5-yl)-3,8-diazabicyclo[3.2.1]octan-3-yl)(pyrrolidin-1-yl)methanone] |  | 100 to 500 | < 100 | < 100 |  |  |  |  | > 2000 |  |  |  |  |  | > 2000 | > 2000 | 100 to 500 |  |
| C[C@@H]1CN(c2ccc(-c3n[nH]c4cnc(N5C6CCC5CC6)nc34)cn2)CCN1 [Example 3, 5-(7-Azabicyclo[2.2.1]heptan-7-yl)-3-(6-((R)-3-methylpiperazin-1-yl)pyridin-3-yl)-1H-pyrazolo[4,3-d]pyrimidine] | 500 to 2000 | 100 to 500 | < 100 | < 100 | 100 to 500 | 100 to 500 | 100 to 500 |  |  |  |  |  |  |  |  |  |  |  |
| CN1CC2CCC(C1=O)N2c1ncc2[nH]nc(-c3cnn(CC(F)(F)F)c3)c2n1 (stereo not drawn) [Example 67, 3-Methyl-8-(3-(1-(2,2,2-trifluoroethyl)-1H-pyrazol-4-yl)-1H-pyrazolo[4,3-d]pyrimidin-5-yl)-3,8-diazabicyclo[3.2.1]octan-2-one] | 100 to 500 |  |  |  |  |  |  |  | < 100 |  | 100 to 500 |  |  |  |  |  |  | 100 to 500 |
